The test concerns NCI-H1876 tumor spheroid viability. As to the kind of experiment: Anticancer human tumor NCI-H1876 cell line growth inhibition.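 For all read-outs here: spheroids exposed to compounds for seven days before the viability read.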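 For viability, T/C: percent of DMSO vehicle control viability so 100% = vehicle.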 Conditions: spheroids with HUVEC and MSC; for viability, T/C: stronger effect = lower value. The source says:
Multicellular complex tumor spheroid response to DNA repair inhibitors in combination with DNA-damaging drugs
This study explores the anticancer activities of DNA-damaging drugs and inhibitors of DNA damage repair, both as single agents and in combinations. Complex tumor spheroids comprised of malignant cells, endothelial cells and mesenchymal stem cells served as an in vitro model for human solid tumors. This model system incorporates physiologically relevant features and patient-derived or established malignant cell lines with clinically relevant genetic alterations from many tumor types. Twenty-six patient-derived or established malignant cell lines were evaluated representing sarcoma, melanoma, small cell lung cancer (SCLC), non-small cell lung cancer (NSCLC), as well as bladder, ovarian and pancreatic cancers. The concentration ranges selected for each drug and investigational agent were based upon clinically achievable concentrations if the clinical Cmax of the agent was known.
Compounds. The drugs and compounds olaparib (NSC753686), talazoparib (NSC767125), berzosertib (NSC777718), elimusertib (NSC800525), nedisertib (NSC802822), VX-984 (NSC792969), AZD-1390 (NSC803789), temozolomide (NSC362856), topotecan (NSC609699), trabectedin (NSC813783), staurosporine (NSC755774), and gemcitabine (NSC613327) were obtained from the National Cancer Institute (NCI) Developmental Therapeutics Program Chemical Repository. The FDA-approved anticancer drug set is available from the Developmental Therapeutics Program at https://dtp.cancer.gov/organization/dscb/obtaining/available_plates.htm. […] The stock solutions were prepared in dimethyl sulfoxide (DMSO, Sigma-Aldrich, St. Louis, MO, cat. D2650) at 400-fold the tested concentration and stored at -70 degrees C. Prior to their use, the stock solutions were diluted in fresh medium and the final DMSO concentration in the assay was 0.25% (v/v). All drugs and investigational agents were tested over a range starting from a high concentration at or near the clinical Cmax and decreasing in half-log increments. If the clinical Cmax for an agent had not been determined, the highest concentration tested was 10 microM.
Cell Lines. The patient-derived cancer cell (PDC) lines: 156681-154-R-J1-PDC, 283228-195-R-J1-PDC, 287954-098-R-J1-PDC, 292921-168-R-J2-PDC, 349418-098-R-PDC, 425362-245-T-J1-PDC, 556581-035-R-J1-PDC, and BL0293-F563-PDC were received from the NCI Patient-Derived Models Repository (PDMR, https://pdmr.cancer.gov). The established cell lines HS-SY-2 (RRID:CVCL_8719), MPNST, and SYO-1 (RRID:CVCL_7146) were obtained from the Sloan Kettering Institute. The alveolar soft parts sarcoma cell line ASPS-1 (RRID:CVCL_S738) was established at the NCI and grown from internal seed stocks. The following established cell lines were purchased from the American Type Culture Collection (ATCC, Manassas, VA): G-401 (ATCC, cat. CRL-1441, RRID:CVCL_0270), SW982 (ATCC, cat. HTB-93, RRID:CVCL_1734), VA-ES-BJ (ATCC, cat. CRL-2138, RRID:CVCL_1785), NCI-H719 (ATCC, cat. CRL-5837, RRID:CVCL_1582), NCI-H196 (ATCC, cat. CRL-5823, RRID:CVCL_1509), NCI-H841 (ATCC, cat. CRL-5845, RRID:CVCL_1595), NCI-H1618 (ATCC, cat. CRL-5879, RRID:CVCL_1480), NCI-H1876 (ATCC, cat. CRL-5902, RRID:CVCL_1503), DMS 114 (ATCC, cat. CRL-2066; RRID:CVCL_1174), NCI-H211 (ATCC, cat. CRL-5824; RRID:CVCL_1529), and SW 1271 (ATCC, cat. CRL-2177, RRID:CVCL_1716). The small cell lung cancer cell line COR-L88 was purchased from Sigma-Aldrich (cat. 92031917-1VL, RRID:CVCL_1141). The non-small cell lung cancer cell lines NCI-H226 (RRID:CVCL_1544) and NCI-H322M (RRID:CVCL_1557) were established at the NCI and grown from internal seed stocks. Pooled donor human umbilical vein endothelial cells (HUVEC, Lonza, cat. CC-2519) and human mesenchymal stem cells (hMSC, Lonza, cat. PT-2501) were purchased from Lonza (Walkersville, MD).
Cell Culture. All cells were maintained in an incubator at 37 degrees C and 5% CO2 with 95% humidity. […]

Setting [1] is: compound alone, run of 11/07/2019.
Where [2] appears, read: compound alone, run of 12/16/2019.

pIC50: −log10 of the molar value. Values joined by “and” are separate entries in the source; they are usually repeats but may differ in a detail not shown here. Equal entries are not always repeated. Active and inactive are the calls of the source. Rule for the calls: active = viability on the fitted dose curve at most 10% of control; inactive = the rest.

With `CC(C)n1c(=O)n(C)c2cnc3cc(F)c(-c4ccc(OCCCN5CCCCC5)nc4)cc3c21`, the viability, T/C (compound 0.0316 µM) was 100% and 85.6% and 104%; the viability, T/C (compound 0.1 µM) is 98.1% and 49.6% and 104%; the viability, T/C (compound 0.316 µM) was 103% and 53.3% and 100%; the viability, T/C (compound 1 µM) was 103% and 47.4% and 104%; the viability, T/C (compound 3.16 µM) is 107% and 28.5% and 105%; the viability, T/C (compound 10 µM) was 102% and 11.4% and 93.3%.
As to `CC1COCCN1c1cc(-c2ccnn2C)c2ccnc(-c3ccn[nH]3)c2n1` (configuration not stated), the viability, T/C reads like this: (compound 0.0316 µM) 54% and 61.9% and 73.3%; (compound 0.1 µM) 32.2% and 41.5% and 41.2%; (compound 0.316 µM) 18.1% and 48.3% and 20.1%; (compound 1 µM) 6.97% and 20% and 7.21%; (compound 3.16 µM) 3.09% and 11.9% and 3.22%; (compound 10 µM) 2.37% and 7.33% and 2.52%. Besides, the negative logarithm of the IC50 (pIC50) (curve of compound) is 7.41 and 6.92 and 7.13.
For `CC[C@@]1(O)C(=O)OCc2c1cc1n(c2=O)Cc2cc3c(CN(C)C)c(O)ccc3nc2-1`, the viability, T/C is 84.5% [middle of 10 runs] (compound 0.003 µM), 12.1% [middle of 10 runs] (compound 0.03 µM), 8% [middle of 10 runs] (compound 0.0949 µM) and 3.52% [middle of 10 runs] (compound 0.3 µM). Further, the IC50 reads like this: under setting [1], 7.08 nM [middle of 5 runs]; under setting [2], 5.61 nM [middle of 5 runs].
As to `CNCc1ccc(-c2cc(-c3nc(-c4ccc(S(=O)(=O)C(C)C)cc4)cnc3N)on2)cc1`, the viability, T/C (compound 0.00949 µM) was 97.7% and 86.9% and 104%; the viability, T/C (compound 0.03 µM) was 76.6% and 72.2% and 99.9%; the viability, T/C (compound 0.0949 µM) is 59.2% and 49.9% and 105%; the viability, T/C (compound 0.3 µM) was 31.1% and 27.1% and 92.3%; the viability, T/C (compound 0.949 µM) is 16.1% and 10.4% and 48.3%; the viability, T/C (compound 3 µM) was 10.2% and 0.26% and 20.5%. In addition, the pIC50 (curve of compound) was 6.90 and 7.02 and 6.04.
Take `COc1cc(C)[nH]c(=O)c1CN1CCc2c(Cl)cc(C(OC)C3COC3)c(Cl)c2C1=O` (configuration not stated): the viability, T/C by setting is: (compound 0.0316 µM) 106% and 117% and 105%; (compound 0.1 µM) 109% and 112% and 103%; (compound 0.316 µM) 101% and 110% and 98.1%; (compound 1 µM) 102% and 103% and 92.3%; (compound 3.16 µM) 98.3% and 96.9% and 95.2%; (compound 10 µM) 94.2% and 77.4% and 86.5%. For the same compound, the negative logarithm of the IC50 (pIC50) (curve of compound) was less than 5.00.
For `COc1cc2c(cc1O)CCNC21CSC2c3c(OC(C)=O)c(C)c4c(c3C(COC1=O)N1C(O)C3Cc5cc(C)c(OC)c(O)c5C(C21)N3C)OCO4` (configuration not stated), the viability, T/C is 102% [middle of 10 runs] (compound 30 pM), 90.2% [middle of 10 runs] (compound 94.9 pM), 2.68% [middle of 10 runs] (compound 0.000949 µM) and 0.78% [middle of 10 runs] (compound 0.003 µM). Also, under setting [2], the half-maximal inhibitory concentration (IC50) is 0.197 nM [middle of 10 runs].
`COc1ccc([C@@H](O)c2cc(-c3ncnc4cc(N5CCOCC5)ccc34)c(F)cc2Cl)nn1`: the viability, T/C is 105% and 98% and 103% (compound 0.0316 µM); 104% (2×) and 95.2% (compound 0.1 µM); 102% and 74.6% and 96.1% (compound 0.316 µM); 97.6% and 98% (compound 1 µM); 81.2% and 26.2% and 77.6% (compound 3.16 µM). Also, under “compound 1 µM”, the outcome was inactive. For the setting “curve of compound”, the negative logarithm of the IC50 (pIC50) was 5.26 and 5.95 and 5.19.
`Cc1cc(C)c(CNC(=O)c2cc(-c3ccc(CN4CCOCC4)cc3)cc3c2cnn3C2CCCC2)c(=O)[nH]1`: the viability, T/C by setting is: (compound 0.0316 µM) 100% and 97.7% and 96.6%; (compound 0.1 µM) 102% and 83.9% and 79.4%; (compound 0.316 µM) 105% and 63% and 63.8%; (compound 1 µM) 105% and 49.2% and 51.9%; (compound 3.16 µM) 107% and 28.4% and 30.3%; (compound 10 µM) 99.2% and 12% and 11.3%.
For `Cc1sc2c(c1C)C(c1ccc(Cl)cc1)=NC(CC(=O)Nc1ccc(O)cc1)c1nnc(C)n1-2` (configuration not stated), the viability, T/C was 94.3% and 86.8% and 105% (compound 0.00949 µM); 71.5% and 70.6% and 109% (compound 0.03 µM); 51.4% and 53% and 109% (compound 0.0949 µM); 33.7% and 35.1% and 81.6% (compound 0.3 µM); 17% and 16% and 39.7% (compound 0.949 µM); 12.9% and 9.5% and 12.3% (compound 3 µM). The negative-log IC50 (pIC50) (curve of compound) is 7.01 and 6.95 and 6.15.
Regarding `Cn1ncnc1[C@H]1c2n[nH]c(=O)c3cc(F)cc(c23)N[C@@H]1c1ccc(F)cc1`, the viability, T/C (compound 0.00949 µM) is 88.9% and 68.4% and 87.4%; the viability, T/C (compound 0.03 µM) was 73.5% and 65.7% and 71.3%; the viability, T/C (compound 0.0949 µM) was 52.3% and 49.7% and 39.4%; the viability, T/C (compound 0.3 µM) was 28.3% and 25.2% and 21.1%; the viability, T/C (compound 3 µM) is 0.28% and 7.28% and 3.57%. For the same compound, where the note is “curve of compound”, the pIC50 was 6.98 and 7.07 and 7.17.
Turning to `Cn1nnc2c(C(N)=O)ncn2c1=O`, the viability, T/C is 95% [middle of 10 runs] (compound 1 µM), 103% [middle of 10 runs] (compound 3.16 µM) and 99.7% [middle of 10 runs] (compound 10 µM). Also, the pIC50 under setting [1] was < 4.00 and 4.72 and 4.04.
`O=C(c1cc(Cc2n[nH]c(=O)c3ccccc23)ccc1F)N1CCN(C(=O)C2CC2)CC1`: the viability, T/C (compound 0.0949 µM) is 87% and 103% and 107%; the viability, T/C (compound 0.3 µM) is 76% and 89.7% and 106%; the viability, T/C (compound 0.949 µM) is 84.4% and 76.2% and 100%; the viability, T/C (compound 3 µM) was 72.1% and 55.2% and 76.5%; the viability, T/C (compound 9.49 µM) is 64% and 33.9% and 18.2%; the viability, T/C (compound 30 µM) is 66.7% and 19.1% and 12.6%. Where the note is “curve of compound”, the pIC50 was < 4.52 and 5.40 and 5.29.
In the case of `[2H]c1nc(C)nc([2H])c1-c1cc(NC[C@@H](C)c2cccc3c(C(=O)NC)ccnc23)ncn1`, the viability, T/C was 102% and 103% and 99.3% (compound 0.0316 µM); 107% and 55.1% and 102% (compound 0.1 µM); 99.8% and 70.6% and 102% (compound 0.316 µM); 102% and 101% and 99.3% (compound 1 µM); 102% and 90.8% and 97.4% (compound 3.16 µM); 96.6% and 71% and 95% (compound 10 µM). Moreover, the pIC50 (curve of compound) is less than 5.00.

The values above are taken from PubChem BioAssay AID1845207 (Molecular Pharmacology Branch, DTP, NCI, 2023).
